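Values below derive from 48-hour exposures of cells grown in 96-well plates, with endpoints linearly interpolated between the two concentrations bracketing the appropriate inhibition level. GI50 marks 50% less growth. TGI is the concentration that stops growth completely.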
Legend:
Assay in all cases: NCI-60 cell line screen, 48 h
UO-31 renal = tested on: UO-31 renal
HT29 colon = tested on: HT29 colon
OVCAR-5 ovarian = tested on: OVCAR-5 ovarian
COLO 205 colon = tested on: COLO 205 colon
HOP-62 NSCLC = tested on: HOP-62 NSCLC
OVCAR-8 ovarian = tested on: OVCAR-8 ovarian
A549 NSCLC = tested on: A549 NSCLC
CCRF-CEM leukemia = tested on: CCRF-CEM leukemia
786-0 renal = tested on: 786-0 renal
HCC-2998 colon = tested on: HCC-2998 colon
SNB-19 CNS = tested on: SNB-19 CNS
TK-10 renal = tested on: TK-10 renal
SK-MEL-5 melanoma = tested on: SK-MEL-5 melanoma
ACHN renal = tested on: ACHN renal
NCI/ADR-RES ovarian = tested on: NCI/ADR-RES ovarian
DU-145 prostate = tested on: DU-145 prostate
A498 renal = tested on: A498 renal
SF-539 CNS = tested on: SF-539 CNS
MDA-MB-435 = tested on: MDA-MB-435
KM12 colon = tested on: KM12 colon
SN12C renal = tested on: SN12C renal
CAKI-1 renal = tested on: CAKI-1 renal
HCT-15 colon = tested on: HCT-15 colon
EKVX NSCLC = tested on: EKVX NSCLC
SF-268 CNS = tested on: SF-268 CNS
OVCAR-4 ovarian = tested on: OVCAR-4 ovarian
NCI-H226 lung = tested on: NCI-H226 lung
IGROV1 ovarian = tested on: IGROV1 ovarian
SNB-75 CNS = tested on: SNB-75 CNS
MCF7 breast = tested on: MCF7 breast
HL-60(TB) leukemia = tested on: HL-60(TB) leukemia
HS 578T breast = tested on: HS 578T breast
OVCAR-3 ovarian = tested on: OVCAR-3 ovarian
SK-MEL-2 melanoma = tested on: SK-MEL-2 melanoma
NCI-H522 lung = tested on: NCI-H522 lung
HOP-92 NSCLC = tested on: HOP-92 NSCLC
NCI-H460 lung = tested on: NCI-H460 lung
HCT-116 colon = tested on: HCT-116 colon
T-47D breast = tested on: T-47D breast
BT-549 breast = tested on: BT-549 breast
M14 melanoma = tested on: M14 melanoma
SF-295 CNS = tested on: SF-295 CNS
SK-OV-3 ovarian = tested on: SK-OV-3 ovarian
RPMI-8226 leukemia = tested on: RPMI-8226 leukemia
LOX IMVI melanoma = tested on: LOX IMVI melanoma
MDA-MB-231 breast = tested on: MDA-MB-231 breast
SW-620 colon = tested on: SW-620 colon
K-562 leukemia = tested on: K-562 leukemia
RXF 393 renal = tested on: RXF 393 renal
UACC-257 melanoma = tested on: UACC-257 melanoma
UACC-62 melanoma = tested on: UACC-62 melanoma
NCI-H23 lung = tested on: NCI-H23 lung
PC-3 prostate = tested on: PC-3 prostate
SR leukemia = tested on: SR leukemia
U251 CNS = tested on: U251 CNS
SK-MEL-28 melanoma = tested on: SK-MEL-28 melanoma
MALME-3M melanoma = tested on: MALME-3M melanoma
MOLT-4 leukemia = tested on: MOLT-4 leukemia
MDA-MB-468 breast = tested on: MDA-MB-468 breast

SMILES: O=C(Cc1ccc2c(c1)CN(C1CCC(=O)NC1=O)C2=O)NCc1cccc2ccccc12 (configuration not stated)
- GI50 (UO-31 renal): < 11.5 nM
- TGI (UO-31 renal): 87.7 nM
- GI50 (HT29 colon): 10.2 nM
- TGI (HT29 colon): 108 nM
- GI50 (OVCAR-5 ovarian): < 10 nM
- TGI (OVCAR-5 ovarian): 40.9 nM
- GI50 (COLO 205 colon): < 10 nM
- TGI (COLO 205 colon): < 10 nM
- GI50 (HOP-62 NSCLC): < 10 nM
- TGI (HOP-62 NSCLC): < 32.1 nM
- GI50 (OVCAR-8 ovarian): < 10 nM
- GI50 (A549 NSCLC): 14.6 nM
- TGI (A549 NSCLC): > 100000 nM
- GI50 (CCRF-CEM leukemia): < 10 nM
- TGI (CCRF-CEM leukemia): 105 nM
- GI50 (786-0 renal): < 10 nM
- GI50 (HCC-2998 colon): < 10 nM
- TGI (HCC-2998 colon): < 10 nM
- GI50 (SNB-19 CNS): < 10 nM
- TGI (SNB-19 CNS): 74.2 nM
- GI50 (TK-10 renal): < 16.9 nM
- TGI (TK-10 renal): 751 nM
- GI50 (SK-MEL-5 melanoma): < 10 nM
- TGI (SK-MEL-5 melanoma): < 11.9 nM
- GI50 (ACHN renal): 52.6 nM
- TGI (ACHN renal): 904 nM
- GI50 (NCI/ADR-RES ovarian): 300 nM
- TGI (NCI/ADR-RES ovarian): 3080 nM
- GI50 (DU-145 prostate): 38.8 nM
- GI50 (A498 renal): < 10 nM
- TGI (A498 renal): 72.8 nM
- GI50 (SF-539 CNS): < 10.3 nM
- TGI (SF-539 CNS): 114 nM
- GI50 (MDA-MB-435): < 10 nM
- TGI (MDA-MB-435): 163 nM
- GI50 (KM12 colon): < 10 nM
- TGI (KM12 colon): 461 nM
- GI50 (SN12C renal): < 10 nM
- TGI (SN12C renal): 88.2 nM
- GI50 (CAKI-1 renal): < 10 nM
- TGI (CAKI-1 renal): 6380 nM
- GI50 (HCT-15 colon): < 10 nM
- TGI (HCT-15 colon): 114 nM
- GI50 (EKVX NSCLC): < 22.4 nM
- GI50 (SF-268 CNS): < 10 nM
- TGI (SF-268 CNS): 260 nM
- GI50 (OVCAR-4 ovarian): < 10 nM
- TGI (OVCAR-4 ovarian): 46 nM
- GI50 (NCI-H226 lung): < 10 nM
- TGI (NCI-H226 lung): 41 nM
- GI50 (IGROV1 ovarian): < 10 nM
- TGI (IGROV1 ovarian): < 15.7 nM
- GI50 (SNB-75 CNS): < 10 nM
- TGI (SNB-75 CNS): < 12 nM
- GI50 (MCF7 breast): < 10 nM
- TGI (MCF7 breast): > 33300 nM
- GI50 (HL-60(TB) leukemia): < 10 nM
- GI50 (HS 578T breast): < 10 nM
- TGI (HS 578T breast): < 17.9 nM
- GI50 (OVCAR-3 ovarian): 25.9 nM
- TGI (OVCAR-3 ovarian): 1170 nM
- GI50 (SK-MEL-2 melanoma): < 10 nM
- TGI (SK-MEL-2 melanoma): 19.2 nM
- GI50 (NCI-H522 lung): 29.1 nM
- TGI (NCI-H522 lung): 351 nM
- GI50 (HOP-92 NSCLC): < 10 nM
- TGI (HOP-92 NSCLC): < 10 nM
- GI50 (NCI-H460 lung): 5170 nM
- TGI (NCI-H460 lung): > 100000 nM
- GI50 (HCT-116 colon): 54.6 nM
- TGI (HCT-116 colon): > 100000 nM
- GI50 (T-47D breast): < 10 nM
- TGI (T-47D breast): < 10 nM
- GI50 (BT-549 breast): < 10 nM
- TGI (BT-549 breast): < 10 nM
- GI50 (M14 melanoma): < 10 nM
- TGI (M14 melanoma): 33.4 nM
- GI50 (SF-295 CNS): < 10 nM
- TGI (SF-295 CNS): 129 nM
- GI50 (SK-OV-3 ovarian): < 10 nM
- TGI (SK-OV-3 ovarian): 147 nM
- GI50 (RPMI-8226 leukemia): < 11.3 nM
- TGI (RPMI-8226 leukemia): > 100000 nM
- GI50 (LOX IMVI melanoma): 41.5 nM
- TGI (LOX IMVI melanoma): 2510 nM
- GI50 (MDA-MB-231 breast): < 10 nM
- TGI (MDA-MB-231 breast): < 10 nM
- GI50 (SW-620 colon): < 10 nM
- GI50 (K-562 leukemia): < 10 nM
- TGI (K-562 leukemia): > 100000 nM
- GI50 (RXF 393 renal): < 10 nM
- TGI (RXF 393 renal): 25.7 nM
- GI50 (UACC-257 melanoma): 350 nM
- TGI (UACC-257 melanoma): > 100000 nM
- GI50 (UACC-62 melanoma): 40.3 nM
- TGI (UACC-62 melanoma): 1420 nM
- GI50 (NCI-H23 lung): 88.6 nM
- TGI (NCI-H23 lung): 3990 nM
- GI50 (PC-3 prostate): < 10 nM
- TGI (PC-3 prostate): 177 nM
- GI50 (SR leukemia): 92.9 nM
- TGI (SR leukemia): > 100000 nM
- GI50 (U251 CNS): 39.4 nM
- TGI (U251 CNS): > 100000 nM
- GI50 (SK-MEL-28 melanoma): < 11.4 nM
- TGI (SK-MEL-28 melanoma): 189 nM
- GI50 (MALME-3M melanoma): < 10 nM
- TGI (MALME-3M melanoma): < 10 nM
- GI50 (MOLT-4 leukemia): < 10 nM
- TGI (MOLT-4 leukemia): > 100000 nM
- GI50 (MDA-MB-468 breast): < 10 nM
- TGI (MDA-MB-468 breast): < 10 nM

Source: PubChem BioAssay (NCI)
